Assays:
TrkA = target: T1, TrkA (Homo sapiens, UniProt P04629); assay: cell-based Enzyme Fragment Complementation (EFC) assay, U2OS cells over-expressing TrkA; conditions: compound pre-mixed with ligand (NGF), final ligand concentration 10 ng/mL, 3 hours at room temperature, read-out: TrkA potency expressed as EC50
T1 construct: expressed in transfected cells; host or cells: U2OS
Excerpt: (§1) A high throughput cell-based screen has been used to identify positive modulators of TrkA and TrkB. The screen involves the use of cell-based assay overexpressing TrkA or TrkB. The purpose of the assay is to identify compounds that modulate neurotrophin signalling (Forsell et al 2012). The assay can be used in inhibitor mode using a high concentration of ligand, in modulator mode using an intermediate concentration and in agonist mode using a low concentration of ligand.
(§2) The assay uses Enzyme Fragment Complementation (EFC) technique, which is a proximity-based assay. Briefly, cells used in this assay over-express two fusion proteins, i.e. the receptor, which can be either of TrkA or TrkB, fused to a small peptide of beta-galactosidase and an adaptor protein, i.e. SHC1 (or any other Trk-adaptor protein) fused to the major part of beta-galactosidase. […] The proximity between the small activating peptide on the receptor and the major part of beta-galactosidase on the adaptor protein leads to an active beta-galactosidase enzyme. The activation of the receptor is quantified by measuring the amount of active beta-galactosidase by its conversion of a non-luminescent substrate into a luminescent product.
(§3) U2OS-cells, over-expressing TrkA or TrkB, are plated in 96- or 384-well plates and incubated overnight. On the following day, test compound was pre-mixed with ligand (NGF) and the ligand-compound mixture is then added to the cells to yield a final ligand concentration of 10 ng/mL. After 3 hours of incubation at room temperature, the incubation is stopped by the addition of a beta-galactosidase substrate mixture containing detergents. The substrate mixture is incubated for 60 minutes at ambient temperature. The luminescence is thereafter read by the use of a plate reader.

TrkB = target: T2, TrkB (Homo sapiens, UniProt Q16620); assay: cell-based Enzyme Fragment Complementation (EFC) assay, U2OS cells over-expressing TrkB; conditions: compound pre-mixed with ligand (NGF), final ligand concentration 10 ng/mL, 3 hours at room temperature, read-out: TrkB potency expressed as EC50
T2 construct: expressed in transfected cells; host or cells: U2OS
Excerpt: as §1, §2, §3

[1] = test system: ephrin type-B receptor 2 (EphB2); conditions: Suzuki et al., FEBS Open Bio 2016; cited from earlier work

T2 sequence (Q16620 32-822): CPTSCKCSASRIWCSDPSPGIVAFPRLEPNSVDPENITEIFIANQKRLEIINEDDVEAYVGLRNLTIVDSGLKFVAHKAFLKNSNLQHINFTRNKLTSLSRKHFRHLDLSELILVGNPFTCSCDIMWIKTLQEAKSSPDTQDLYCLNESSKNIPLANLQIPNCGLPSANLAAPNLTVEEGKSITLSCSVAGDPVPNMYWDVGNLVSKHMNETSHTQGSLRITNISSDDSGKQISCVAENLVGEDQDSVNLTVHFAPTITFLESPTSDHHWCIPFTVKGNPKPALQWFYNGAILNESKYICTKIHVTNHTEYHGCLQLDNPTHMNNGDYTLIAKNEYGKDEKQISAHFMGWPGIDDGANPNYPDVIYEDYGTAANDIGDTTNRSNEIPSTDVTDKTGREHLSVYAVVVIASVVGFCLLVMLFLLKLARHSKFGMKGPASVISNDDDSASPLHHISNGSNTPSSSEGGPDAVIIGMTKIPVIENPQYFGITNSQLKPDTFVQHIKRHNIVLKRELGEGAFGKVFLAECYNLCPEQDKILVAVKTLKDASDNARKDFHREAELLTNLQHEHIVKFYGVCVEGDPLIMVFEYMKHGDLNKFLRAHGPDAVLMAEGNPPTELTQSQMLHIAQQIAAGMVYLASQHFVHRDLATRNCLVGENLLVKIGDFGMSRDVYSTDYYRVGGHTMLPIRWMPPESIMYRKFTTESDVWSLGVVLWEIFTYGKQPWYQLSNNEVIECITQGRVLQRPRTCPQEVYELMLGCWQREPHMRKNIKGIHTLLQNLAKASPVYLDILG
T1 sequence (P04629 33-796): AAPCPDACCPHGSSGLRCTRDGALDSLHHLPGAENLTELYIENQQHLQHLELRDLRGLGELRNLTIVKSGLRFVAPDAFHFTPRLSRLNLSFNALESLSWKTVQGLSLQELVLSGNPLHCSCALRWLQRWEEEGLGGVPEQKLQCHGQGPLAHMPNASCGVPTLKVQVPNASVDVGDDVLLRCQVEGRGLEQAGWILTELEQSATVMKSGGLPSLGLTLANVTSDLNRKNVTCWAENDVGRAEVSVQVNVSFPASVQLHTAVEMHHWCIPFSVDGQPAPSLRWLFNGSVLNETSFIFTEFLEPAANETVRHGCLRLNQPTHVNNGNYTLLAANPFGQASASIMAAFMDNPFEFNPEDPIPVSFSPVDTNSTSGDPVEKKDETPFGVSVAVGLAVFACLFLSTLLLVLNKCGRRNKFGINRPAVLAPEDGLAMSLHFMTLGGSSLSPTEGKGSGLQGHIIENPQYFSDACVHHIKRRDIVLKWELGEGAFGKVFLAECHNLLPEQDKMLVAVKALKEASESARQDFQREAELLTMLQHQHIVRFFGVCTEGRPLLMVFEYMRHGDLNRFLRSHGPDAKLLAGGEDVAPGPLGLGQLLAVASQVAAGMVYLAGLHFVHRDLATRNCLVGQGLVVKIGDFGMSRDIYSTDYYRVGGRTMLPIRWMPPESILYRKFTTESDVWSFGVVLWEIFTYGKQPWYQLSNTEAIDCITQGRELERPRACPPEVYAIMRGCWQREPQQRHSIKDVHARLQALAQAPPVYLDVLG

Structure (SMILES)	EC50 (TrkA)	EC50 (TrkB)	inhibits the binding of p-amyloid oligomers to ephrin type-B receptor 2 (EphB2) [1]
Cc1ccc(-c2ccc(-n3c(=O)[nH]c(=O)n(-c4ccccc4)c3=O)cc2C)o1 [Example 4, 1-[3-methyl-4-(5-methylfuran-2-yl)phenyl]-3-phenyl-1,3,5-triazinane-2,4,6-trione]	6.77 µM	2.08 µM	–
CCc1ccc(-c2ccc(-n3c(=O)[nH]c(=O)n(C)c3=O)cc2C)cc1 [Example 5, 1-{4′-ethyl-2-methyl-[1,1′-biphenyl]-4-yl}-3-methyl-1,3,5-triazinane-2,4,6-trione]	7.2 µM	3 µM	–
Cc1cc(-n2c(=O)[nH]c(=O)n(-c3ccccc3)c2=O)ccc1C(C)C [Example 3, 1-[3-methyl-4-(propan-2-yl)phenyl]-3-phenyl-1,3,5-triazinane-2,4,6-trione]	7.05 µM	7.9 µM	–
Cc1cc(-n2c(=O)[nH]c(=O)n(C)c2=O)ccc1-c1ccccc1 [Example 7, 1-methyl-3-{2-methyl-[1,1′-biphenyl]-4-yl}-1,3,5-triazinane-2,4,6-trione]	6.71 µM	20.6 µM	–
Cc1cc(-n2c(=O)[nH]c(=O)n(-c3ccccc3)c2=O)ccc1-n1cccn1 [Example 8, 1-[3-methyl-4-(1H-pyrazol-1-yl)phenyl]-3-phenyl-1,3,5-triazinane-2,4,6-trione]	5.56 µM	6.22 µM	–
Cc1cc(-n2c(=O)[nH]c(=O)n(-c3ccccc3)c2=O)ccc1N1CCCCC1 [Example 2, 1-[3-methyl-4-(piperidin-1-yl)phenyl]-3-phenyl-1,3,5-triazinane-2,4,6-trione]	1.05 µM	1.27 µM	–
Cc1cccc(-n2c(=O)[nH]c(=O)n(-c3ccc(-n4cccc4)c(C)c3)c2=O)c1 [Example 11, 1-[3-methyl-4-(1H-pyrrol-1-yl)phenyl]-3-(3-methylphenyl)-1,3,5-triazinane-2,4,6-trione]	0.1 µM	0.07 µM	–
Cc1cc(-n2c(=O)[nH]c(=O)n(C)c2=O)ccc1Oc1ccc(SC(F)(F)F)cc1 [toltrazuril, 1-methyl-3-(3-methyl-4-{4-[(trifluoromethyl)sulfanyl]phenoxy}phenyl)-1,3,5-triazinane-2,4,6-trione]	–	–	30%
Cc1cc(-n2c(=O)[nH]c(=O)n(-c3ccccc3)c2=O)ccc1-n1cccc1 [Example 6, 1-[3-methyl-4-(1H-pyrrol-1-yl)phenyl]-3-phenyl-1,3,5-triazinane-2,4,6-trione]	0.24 µM	0.25 µM	–
Cc1cc(-n2c(=O)[nH]c(=O)n(-c3ccccc3)c2=O)ccc1-c1ccccc1 [Example 1, 1-{2-methyl-[1,1′-biphenyl]-4-yl}-3-phenyl-1,3,5-triazinane-2,4,6-trione]	0.18 µM	0.09 µM	–

From US20210261513A1, “4-SUBSTITUTED PHENYL-1,3,5-TRIAZINE DERIVATIVES AS MODULATORS OF TRK RECEPTORS” (ALZECURE PHARMA AB, priority 2018, published 2021)
